Test results as given in ChEMBL document CHEMBL1149593, “Mechanism of the melanogenesis stimulation activity of (-)-cubebin in murine B16 melanoma cells” (2007).
Calls of active or inactive are those of the source. The calls are words filed in the database; no cut-off is given here.

Experiments:
[1] = test system: B16; assay: Melanogenesis stimulation activity in mouse B16 cells at 2 to 10 uM; type: functional, cell-based
[2] = test system: B16; assay: Increase in melanin level in mouse B16 cells at 10 uM after 48 to 96 hrs; type: functional, cell-based
[3] = test system: B16; assay: Increase in tyrosinase activity in mouse B16 cells at 10 uM after 24 to 96 hrs; type: functional, cell-based
[4] = test system: B16; assay: Increase in tyrosinase expression in mouse B16 cells at 10 uM after 48 hrs; type: functional
[5] = test system: B16; assay: Increase in tyrosinase mRNA expression in mouse B16 cells at 10 uM after 12 hrs; type: functional
[6] = target: MAP kinase p38 (Mus musculus) (UniProt P47811+O08911+Q9WUI1+Q9Z1B7); assay: Increase in p38 MAPK phosphorylation in mouse B16 cells at 4 to 8 hrs; type: cell-based
[7] = test system: B16; assay: Induction of tyrosinase mRNA expression in mouse B16 cells in presence of SB-203580; type: functional, cell-based

O[C@H]1OC[C@H](Cc2ccc3c(c2)OCO3)[C@H]1Cc1ccc2c(c1)OCO2
Activity [1]: Active
Activity [2]: Active
Activity [3]: Active
Fold change [4]: 6.2
Fold change [5]: 1.8
Activity [6]: Active
Activity [7]: inactive
